The values below come from the SangsterLogP compilation.

Molecules are shown by their SMILES.

The first series in a line: method code SF-GLC, from DOI: 10.1021/jf00107a040.
The term logP denotes a log measure of how a compound divides between an organic and an aqueous phase. In turn, `NC(=O)Nc1cccc(Cl)c1` gave a logP of 1.82.

As to `NC(=O)Nc1cccc(C(F)(F)F)c1`, the logP is 2.31.

In turn, `CNC(=O)Nc1ccc(Cl)c(Cl)c1` showed a log partition coefficient (logP) of 2.94.

On to `NC(=O)Nc1ccc(F)cc1`, for which the logP was 1.04.

The molecule `NC(=O)Nc1cccc(Br)c1` displayed a logP of 2.08.

The molecule `NC(=O)Nc1ccccc1Cl` showed a lipophilicity (logP) of 1.27.

In turn, `COc1ccc(N)cc1Cl` returned a log partition coefficient (logP) of 1.85.

`NC(=O)Nc1ccc(Br)cc1` had a logP of 1.98.

For the molecule `NC(=O)Nc1cccc(F)c1`, the logP amounted to 1.29.

On to `NC(=O)Nc1ccccc1F`, for which the logP was 0.88.

Take `COC(=O)Nc1ccc(Cl)c(Cl)c1`: the logP stood at 3.09.

For `NC(=O)Nc1ccc(Cl)c(Cl)c1`, the logP is 2.64.

The nature of the next series: method code SF-RC, from DOI: 10.1021/jf00107a040.
The molecule `CNC(=O)ON=CC(C)(C)S(C)(=O)=O` had a logP of -0.57.

A further series in a line: method code SF-AS, from DOI: 10.1021/jf00107a040.
Regarding `CCCCOC(=O)Nc1ccccc1`, the logP was found to be 3.3.

The molecule `COc1ccc(NC(C)=O)cc1Cl` gave a logP of 1.82.

On to `Cc1cc(C)cc(NC(=O)N(C)C)c1`, for which the log partition coefficient (logP) was determined as 1.9.

Turning to `CC(=O)Nc1cccc(C(F)(F)F)c1`, the logP turned out to be 2.2.

On to `COc1ccc(NC(=O)N(C)C)cc1`, for which the lipophilicity (logP) was found to be 0.83.

In the case of `CN(C)C(=O)Nc1cccc(C(F)(F)F)c1`, the logP is 2.42.

`O=C(Nc1ccccc1)NC1CCCC1`: the logP was determined as 2.65.

In the case of `CN(C)C(=O)Nc1ccc(F)cc1`, the logP worked out at 1.13.

The molecule `CC(C)OC(=O)Nc1ccccc1` displayed a logP of 2.6.

`CC(=O)Nc1cccc(Br)c1` yielded a log partition coefficient (logP) of 2.04.

As for `Cc1ccc(NC(=O)N(C)C)cc1`, the lipophilicity (logP) was found to be 1.33.

Molecule `CNC(=O)Nc1ccccc1` returned a logP of 1.17.

`Cc1ccc(NC(=O)N(C)C)cc1Cl` returned a logP of 2.41.

`Cc1cc(NC(=O)N(C)C)cc(C)c1Br` had a log partition coefficient (logP) of 2.92.

For `CNC(=O)Nc1ccc(C)c(Cl)c1`, the logP stood at 2.61.

Molecule `CCCOC(=O)Nc1ccccc1` yielded a logP of 2.8.

`CCCCCOC(=O)Nc1ccccc1` showed a logP of 3.8.

Molecule `COc1cccc(NC(=O)N(C)C)c1` displayed a logP of 1.73.

`CC(=O)Nc1cccc(F)c1` gave a logP of 1.46.

The molecule `O=[N+]([O-])c1ccc(Br)cc1` registered a lipophilicity (logP) of 2.6.

On to `O=C(Nc1ccccc1)NC1CCCCCC1`, for which the logP came to 2.95.

In turn, `CNC(=O)Nc1cccc(Cl)c1` gave a logP of 2.18.

With `Cc1cc(NC(N)=O)ccc1Br`, the logP was 2.49.

Turning to `CNC(=O)Nc1ccc(OC)c(Cl)c1`, the logP is 1.76.

For `CON(C)C(=O)Nc1ccc(Br)c(Cl)c1`, the logP stood at 3.09.

The molecule `Cc1cccc(NC(N)=O)c1` registered a log partition coefficient (logP) of 1.29.

The molecule `CC(=O)Nc1ccc(Br)cc1` displayed a logP of 2.14.

For `COc1ccc(NC(N)=O)cc1Cl`, the logP stood at 1.37.

`COc1ccc(NC(=O)N(C)C)cc1Cl` came in with a logP of 1.64.

Turning to `CC(=O)Nc1cccc(Cl)c1`, the logP amounted to 2.02.

`CN(C)C(=O)Nc1cccc(Cl)c1` yielded a logP of 2.01.

Molecule `NC(=O)Nc1ccc(Oc2ccccc2)cc1` showed a logP of 2.8.

`CC(=O)Nc1cccc(C)c1`: the lipophilicity (logP) turned out to be 1.52.

Regarding `CN(C)C(=O)Nc1cccc(F)c1`, the lipophilicity (logP) amounted to 1.37.

Regarding `Cc1cc(NC(N)=O)ccc1F`, the logP came to 1.59.

Consider `Cc1cc(N)ccc1Br`, for which the logP was 2.53.

Molecule `O=C(Nc1ccccc1)NC1CCCCC1` showed a logP of 2.77.

With `CCOC(=O)Nc1ccccc1`, the logP worked out at 2.26.

`O=C(Nc1ccccc1)NC1CC1` gave a log partition coefficient (logP) of 1.65.
